“Also recorded” adds a separate entry of the source.
Columns and labels:
[1] = tested on: Primary human dermal microvascular endothelial cells; assay: ECIS steady-state barrier function of confluent endothelial monolayers; assay type: cell-based; settings: for endothelial barrier function (ECIS) compared to other Src inhibitors / endothelial barrier function (ECIS) compared to benchmark agents: bosutinib 300 nM; for endothelial barrier function (ECIS) compared to other Src inhibitors: dasatinib 300 nM, PP2 10 μM, monitored ~22 hours, FIG. 7; for endothelial barrier function (ECIS) compared to benchmark agents: HGF 100 ng/ml (1200 nM), APC 500 nM, monitored ~18 hours, FIG. 6
Description: (§1) Primary human dermal microvascular endothelial cells were grown to confluence. […] Data are mean±SEM of three independent experiments.
as §1, §1

[2] = tested on: Primary human dermal microvascular endothelial monolayers; assay: Confocal imaging of actin and VE-cadherin junctions during permeability challenge; assay type: cell-based
From the text: Samples were fixed and stained for actin (i) and the junctional marker VE-cadherin (ii) before imaging by confocal microscopy. To assess quality of endothelial junctions (see B), image thresholding was applied to the VE-cadherin images to delineate the junctions (line traces in [iii]). […] Scale bar represents 10 μm.
Primary human dermal microvascular endothelial monolayers were challenged with either Thrombin (Thr) or Histamine (His) as described above for FIG. 5A. Quantitative analysis of (i) total junctional area per field and (ii) VE-cadherin intensity within junctions were performed to assess maintenance of junctional integrity. […] Data are mean±SEM of three independent experiments.

[3] = tested on: Primary human dermal microvascular endothelial cells; assay: Thrombin- and histamine-induced vascular permeability assays (ECIS), pretreatment; assay type: cell-based; settings: for protection to histamine challenge / protection to thrombin challenge: 300 nM for 30 min; for protection to histamine challenge: then histamine 300 μM, FIG. 3B; for protection to thrombin challenge: then thrombin 2.5 U/ml, FIG. 3A
Description: For all assays, primary human dermal microvascular endothelial cells were grown to confluence. Steady state barrier function was monitored by ECIS and normalized to a value of 1. […] Data are mean±SEM of three independent experiments.

FIP rats = assay: Polymicrobial sepsis model (feces-induced peritonitis; FIP), intravital microscopy of the hindlimb; assay type: in vivo, rat
Description: Disease onset was initiated by tail vein injection of a solution of saline and rat feces. […] Microvascular parameters were measured through intravital microscopy of the hindlimb at baseline, 3 hr and 5 hr post FIP onset. […] Data are representative of two separate pilot experiments.

[4] = tested on: Primary bovine aortic endothelial cells; assay: ECIS barrier function, dose response over 72 hours; assay type: cell-based; settings: FIG. 2; for vascular barrier function (ECIS resistance, normalized to 1): single doses, 10 nM to 3 μM, monitored 72 hours
Description: Primary bovine aortic endothelial cells were grown to confluence. Steady state barrier function was monitored by ECIS for 24 hours and normalized to a value of 1. […] Data are mean±SEM of three independent experiments.

Src = Src (Homo sapiens, UniProt P12931); settings: cited from earlier work
Chain of Src (P12931 whole entry, species assumed): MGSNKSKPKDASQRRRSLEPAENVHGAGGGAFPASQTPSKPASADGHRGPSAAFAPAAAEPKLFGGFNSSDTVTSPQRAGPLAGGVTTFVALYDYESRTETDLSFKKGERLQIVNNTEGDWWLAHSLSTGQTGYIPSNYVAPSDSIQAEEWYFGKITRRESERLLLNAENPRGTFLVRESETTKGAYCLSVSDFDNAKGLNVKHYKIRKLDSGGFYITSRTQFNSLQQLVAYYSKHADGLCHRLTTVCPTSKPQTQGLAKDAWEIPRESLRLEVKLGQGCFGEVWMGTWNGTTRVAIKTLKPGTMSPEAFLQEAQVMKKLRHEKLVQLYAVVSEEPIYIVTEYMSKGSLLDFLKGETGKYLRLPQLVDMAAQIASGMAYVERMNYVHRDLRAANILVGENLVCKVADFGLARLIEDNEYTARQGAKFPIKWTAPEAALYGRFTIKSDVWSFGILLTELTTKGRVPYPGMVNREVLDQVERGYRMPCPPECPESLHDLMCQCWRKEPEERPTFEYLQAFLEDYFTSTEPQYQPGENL

[5] = imaging-based analysis, FIGS. 5A and 5B

## CC(C)(C)n1nc(-c2ccc(Cl)cc2)c2c(N)ncnc21 [PP2, 3-(4-chlorophenyl)-1-(1,1-dimethylethyl)-1H-pyr-azolo[3,4-d]pyrimidin-4-amine]
[1]
  endothelial barrier function (ECIS) compared to other Src inhibitors: greatly reduced, endothelial barrier function; also recorded: sustained decreases in barrier function

## COc1cc(Nc2c(C#N)cnc3cc(OCCCN4CCN(C)CC4)c(OC)cc23)c(Cl)cc1Cl [bosutinib]
[2]; 300 nM 30 min pretreatment, thrombin 2.5 U/ml or histamine 300 μM for 30 min, FIG. 5A
  endothelial junction continuity and gap formation: maintains continuous junctions and cortical actin during challenge
[2]; [5]
  VE-cadherin and cortical actin at the intercellular junctions: increase in VE-cadherin and cortical actin at the intercellular junctions
  actin stress fibers in endothelial cells: decrease in actin stress fibers
[2]; thrombin or histamine challenge, FIG. 5B
  total junctional area per field: significantly increased junctional area compared to vehicle controls
[1]
  endothelial barrier function (ECIS) compared to benchmark agents: exhibits unprecedented efficacy and duration of action
  endothelial barrier function (ECIS) compared to other Src inhibitors: sustained increase in barrier function
[1]; listed as Bosutinib
  endothelial barrier function (ECIS) compared to benchmark agents: significant and sustained increase in barrier function
[1]; single 300 nM dose, monitored 3 hours, FIG. 1
  vascular barrier function (ECIS resistance, normalized to 1): profoundly enhanced base-line barrier properties; also recorded: increases in resistance
[3]
  protection to histamine challenge: 100%
  protection to thrombin challenge: ~50%
[3]; thrombin, histamine, Ang-II and TNF-α
  protection against pro-leak stimuli by pretreatment: conferred profound protection against a range of pro-leak stimuli
FIP rats; 10 mg/kg loading dose at 30 min, 5 mg/kg every two hours, tail vein, FIG. 8C
  percent oxygen saturation: effectively preserved; also recorded: similarly maintained in bosutinib-treated, but not control, FIP rats
FIP rats; 10 mg/kg loading dose at 30 min, 5 mg/kg every two hours, tail vein, FIG. 8D
  capillary diameter: unaltered; also recorded: unchanged in both control and bosutinib rats
FIP rats; 10 mg/kg loading dose at 30 min, 5 mg/kg every two hours, tail vein, baseline, 3 hr and 5 hr post FIP onset, FIG. 8A
  red blood cell (RBC) velocity: rapidly decline following sepsis onset in control rats, but not in bosutinib-treated rats
FIP rats; 10 mg/kg loading dose at 30 min, 5 mg/kg every two hours, tail vein, baseline, 3 hr and 5 hr post FIP onset, FIG. 8B
  RBC supply rate: rapidly decline following sepsis onset in control rats, but not in bosutinib-treated rats
FIP rats; pilot studies, septic rats, FIGS. 8A and 8B
  microvascular flow: effectively preserved
[4]; longest experiments conducted thus far
  duration of sustained barrier enhancement: > 72 h
[4]
  vascular barrier function (ECIS resistance, normalized to 1): sustained, dose-dependent increase in vascular barrier function
[4]; listed as Bosutinib
  vascular barrier function (ECIS resistance, normalized to 1): sustained barrier enhancement effects in a dose-dependent manner
Src
  efficacy against Src kinase: low nanomolar range

## Cc1ccc(NC(=O)c2ccc(CN3CCN(C)CC3)cc2)cc1Nc1nccc(-c2cccnc2)n1 [imatinib, Imatinib]
[3]
  protection to histamine challenge: 5-10%
  protection to thrombin challenge: 5-10%

## activated protein C [APC]
[1]
  endothelial barrier function (ECIS) compared to benchmark agents: increase in barrier function that was relatively minor in both magnitude and duration

## hepatocyte growth factor [HGF]
[1]
  endothelial barrier function (ECIS) compared to benchmark agents: initially promoted a similar increase, which was rapidly reversed after ˜20 minutes leading ultimately to a sustained decrease in barrier function

— US20160256457A1, “METHODS FOR TREATING OR PREVENTING ACUTE VASCULAR LEAK” (Beth Israel Deaconess Medical Center, Inc., priority 2014, published 2016)
